From PubChem BioAssay (NCI)
Values joined by “and” are separate entries in the source; they are usually repeats but may differ in a detail not shown here. Equal values may be shown once.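 48-hour exposure; five concentrations; linearly interpolated endpoints. At the GI50, growth is halved. Definition used: TGI = concentration required for complete inhibition of growth.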

What was measured:
Experiment in all cases: NCI-60 cell line screen, 48 h
[1] = system: BT-549 breast
[2] = system: HCT-15 colon
[3] = system: HOP-62 NSCLC
[4] = system: HS 578T breast
[5] = system: SF-295 CNS
[6] = system: SK-OV-3 ovarian
[7] = system: SN12C renal
[8] = system: SNB-75 CNS
[9] = system: U251 CNS
[10] = system: HCC-2998 colon

SMILES	TGI [1]	TGI [2]	TGI [3]	TGI [4]	TGI [5]	TGI [6]	TGI [7]	TGI [8]	TGI [9]	TGI [10]	GI50 [10]	GI50 [2]	GI50 [6]	GI50 [8]
CC(C)(C)OC(=O)CC(NC(=O)OC(C)(C)C)C(=O)Oc1ccc([N+](=O)[O-])cc1 (configuration not stated)	> 100 µM	> 100 µM	> 100 µM	> 100 µM	> 100 µM	> 100 µM	> 100 µM	> 100 µM	> 100 µM	–	–	–	–	–
O[C@H]1[C@@H]2OC[C@@H](O)[C@H](OCc3ccccc3)[C@@](COCc3ccccc3)(O2)[C@@H]1OCc1ccccc1	32.2 µM	30.9 µM	34.4 µM	40.7 µM	26.1 µM	36.6 µM	27.9 µM	18.7 µM	30.4 µM	–	–	–	–	–
CC(=O)Oc1ccc2c3c1[C@@H]1O[C@@H]1c1cccc(c1-3)[C@@H]1O[C@H]21	3.98 µM	–	3.96 µM	5.98 µM	3.83 µM	9.71 µM	–	3.07 µM	–	–	–	–	–	–
CCCC(=O)OC1=C(c2ccccc2)Sc2ccccc2-n2cccc21	–	> 10 µM	> 10 µM	–	> 10 µM	> 10 µM	> 10 µM	> 10 µM	–	> 10 µM	–	–	–	–
NC(=O)N=Nc1c2ccccc2n2[nH]ccc12	–	> 100 µM	> 100 µM	> 100 µM	> 100 µM	> 100 µM	> 100 µM	> 100 µM	> 100 µM	> 100 µM	–	–	–	–
Nc1ccc2c(c1)S(=O)(=O)c1cc(N)ccc1-2	> 100 µM	> 100 µM	> 100 µM	> 100 µM	> 100 µM	> 100 µM	> 100 µM	–	> 100 µM	> 100 µM	–	–	–	–
CCOC(=O)C(C(=O)OCC)C(NC(=O)Nc1cc(C(F)(F)F)ccc1OC)(C(F)(F)F)C(F)(F)F	–	> 100 µM	56.6 µM	> 100 µM	84.8 µM	> 100 µM	74.2 µM	–	59.1 µM	85 µM	–	–	–	–
COc1cc2c(cc1O)N=C[C@@H]1CCC(O)N1C2=O (mixture of isomers)	–	6.44 µM	2.91 µM	–	5.77 µM	84 µM	19.1 µM	3.26 µM	1.71 µM	2.81 µM	–	–	–	–
C/C=C1/C(=O)O[C@]23C=C[C@@H]4C(C(=O)OC)=CO[C@H](O[C@@H]12)[C@@H]43	–	4.66 µM	22 µM	–	5.24 µM	9.75 µM	4.88 µM	7.38 µM	5.9 µM	5.99 µM	–	–	–	–
CC(CNc1nc(Nc2ccc(Cl)c(Cl)c2)nc(C(Cl)(Cl)Cl)n1)N(C)C (configuration not stated)	–	3.15 µM	–	–	–	3.18 µM	–	4.7 µM	–	3.04 µM	1.58 µM	1.68 µM	1.6 µM	1.53 µM
COc1cccc(-c2cc(=O)c3cc(N4CCCC4)ccc3[nH]2)c1	–	0.00647 µM	> 10 µM	> 10 µM	< 0.001 µM	–	> 10 µM	> 10 µM	–	0.013 µM	–	–	–	–
Cc1ccc(C(=O)N/N=C(\N=Nc2ccccc2)c2ccc(N(CCC#N)CCC#N)cc2C)cc1	–	> 100 µM	52.9 µM	> 100 µM	> 100 µM	> 100 µM	–	> 100 µM	> 100 µM	> 100 µM	–	–	–	–
CC(=O)Oc1cc2c(n(C)c1=O)CCC2	> 100 µM	> 100 µM	> 100 µM	–	> 100 µM	> 100 µM	> 100 µM	> 100 µM	> 100 µM	> 100 µM	–	–	–	–
CC1CC(c2ccc([N+](=O)[O-])cc2)=Nc2ccccc2S1=O (configuration not stated)	–	28.1 µM	75 µM	–	55.2 µM	64.9 µM	> 100 µM	53.2 µM	27.7 µM	36.8 µM	–	–	–	–
C1COCCOP2(N3CC3)=NP(N3CC3)(=NP(N3CC3)(N3CC3)=N2)OCCOCCO1 (configuration not stated)	> 100 µM	> 100 µM	> 100 µM	> 100 µM	> 100 µM	> 100 µM	> 100 µM	> 100 µM	> 100 µM	–	–	–	–	–
Cc1c(C=C(C#N)C#N)c(=O)n(C)c(=O)n1C	> 100 µM	> 100 µM	> 100 µM	> 100 µM	> 100 µM	> 100 µM	> 100 µM	> 100 µM	> 100 µM	–	–	–	–	–
Cn1c2c(c3c(=O)[nH]ncc31)CCCc1ccccc1-2	> 100 µM	> 100 µM	> 100 µM	> 100 µM	> 100 µM	64 µM	66.3 µM	> 100 µM	92.1 µM	–	–	–	–	–
C/C(CC(O)(C(F)(F)F)C(F)(F)F)=N/Nc1ccc([N+](=O)[O-])cc1[N+](=O)[O-]	–	> 10 µM	9.15 µM	7.85 µM	> 10 µM	6.3 µM	> 10 µM	> 10 µM	> 10 µM	> 10 µM	–	–	–	–
COC(=O)c1ccccc1Nc1ccccc1C(=O)OC	> 100 µM	> 100 µM	> 100 µM	72.2 µM	> 100 µM	> 100 µM	> 100 µM	> 100 µM	> 100 µM	–	–	–	–	–
Nc1nc2c(ncn2CC(CO)CC(c2ccccc2)P(=O)(O)O)c(=O)[nH]1 (configuration not stated)	–	> 100 µM	> 100 µM	–	> 100 µM	> 100 µM	> 100 µM	> 100 µM	> 100 µM	> 100 µM	–	–	–	13.2 µM and > 100 µM
Cc1ccc(S(=O)(=O)N/N=C2\CC3C4CCC3C2C4)cc1 (configuration not stated)	–	> 100 µM	> 100 µM	> 100 µM	> 100 µM	> 100 µM	> 100 µM	> 100 µM	> 100 µM	> 100 µM	–	–	–	–
CC1(C)O[C@@H](CP(c2ccc3ccccc3c2)c2ccc3ccccc3c2)[C@H](CP(c2ccc3ccccc3c2)c2ccc3ccccc3c2)O1	> 100 µM	> 100 µM	> 100 µM	–	> 100 µM	> 100 µM	> 100 µM	> 100 µM	> 100 µM	> 100 µM	–	–	–	–
CCN1CCC(O)(/C=C/c2ccc(Cl)cc2)C(C(=O)/C=C/c2ccc(Cl)cc2)C1 (configuration not stated)	–	46.4 µM	> 100 µM	–	60.3 µM	61.7 µM	–	74.5 µM	44.9 µM	32.8 µM	–	–	–	–
